Results taken from publication PMC9046208, “Foldamers reveal and validate therapeutic targets associated with toxic α-synuclein self-assembly” (Nature Communications, 2022).

Experiments:
αS = biological target: T1, αS (Homo sapiens, UniProt P37840); assay: FP displacement titration of αS-SK-129F complex with SK-129; type: binding; settings: displacement of SK-129F from αS-SK-129F complex by SK-129, n = 3
T1 construct: made in house; host or cells: Escherichia coli BL21(DE3), periplasm
Description: All Fluorescence Polarization (FP) experiments were conducted on a Varian Cary Eclipse fluorometer (Agilent, Santa Clara, CA) equipped with a polarizer. The stock solutions of αS, 1 mM or 100 μM in 1x PBS buffer, were serially added into a solution of 10 μM SK-129F (300 μL in 1x PBS buffer) while stirring in a quartz cuvette (Fireflysci, Staten Island, NY). All FP measurements were conducted in triplicates in 20 mM Tris, 100 mM NaCl, pH 7.2 at 20 °C. The excitation and emissions wavelengths were set at 490 nm and 520 nm, respectively. Each titration was equilibrated for five min before measurements were taken for the next addition of αS solution. The addition of αS solution was continuous until no more change in the FP signal was observed. Similar conditions were used for the titration of various αS mutants and Aβ42 peptide against SK-129F. […] The polarization of each point was calculated using Eq. 1:1 FP=I∥−I⊥/I∥+I⊥ Where I∥ is fluorescence intensity parallel to the excitation plane and I⊥ is fluorescence intensity perpendicular to the excitation plane. […]
affinity of SK-129 against αS. The fluorescence polarization titrations between SK129 and the preformed saturated complex of SK129 F-αS were conducted three times and each point in titrations was the average of three data points. […]

[1] = test system: HEK cells expressing αS-A53T-YFP; assay: Intracellular seed catalyzed aggregation in HEK cells, inclusion count; type: cell-based; settings: 10 µM SK-129 added 8 h after αS seeds (0.125 µM)
Description: The HEK cells (200,000 cells/mL) were plated in an µ-slide eight-well plate (300 µL/well) and incubated at 37 °C and 5% CO2 (g), and allowed to adhere to the plate for 24 h in media (DMEM, 10% FBS, 1% pen/strep). […] The HEK cells were incubated with αS fibrils for 8 h followed by the addition of 10 µM SK-129 for 300 µL media in each well (0.3 µL of 10 mM stock solution in DMSO, total DMSO = 0.1% v,v). The eight-well plate was incubated for a total of 24 h. The eight-well plate after 24 h was used for both confocal imaging and for the cytotoxicity measurements using MTT assay (2 wells/condition, 300 µL/well). In each experiment, 2 wells were used for each condition, including control (only media and DMSO), fibrils, and fibrils+SK-129.
The HEK cells in the eight-well plate were treated with a Hoechst 33342 dye solution for 1 h by adding 3 µL to each well (from 1 mg/ml solution in 1x PBS buffer). The Hoechst 33342 solution was carefully mixed with media by pipetting up and down for a few times. […] The counting of inclusions was carried out for six different experiments and for each experiment, 100 cells were counted from at least four different locations from the eight-well plate. The cells were counted manually by counting the number of Hoechst 33342 dye-stained nuclei in the cells. The inclusions in the cells were counted manually at different locations in the eight-well plate. […]

- Kd (αS): 720 ± 60 nM
Compound: COC(=O)c1cc(OCC(=O)O)c2cccc(NC(=O)c3cc(OC(C)C)c4cccc(NC(=O)c5cc(OCC(=O)O)c6cccc(NC(=O)c7cc(OC(C)C)c8cccc([N+](=O)[O-])c8n7)c6n5)c4n3)c2n1 [SK-129]
- number of inclusions ([1]; total 24 h, without SK-129 ~19): 1–2 inclusions/100 cells
- number of inclusions ([1]; up to 4 days): 2–3 inclusions/100 cells
